{
  "source": "ChEMBL document CHEMBL6121052",
  "about": "“Design of ROS-Triggered Sesquiterpene Lactone SC Prodrugs as TrxR1 Covalent Inhibitors for the Treatment of Non-Small Cell Lung Cancer” (J Med Chem, 2025)",
  "key": {"A549 [1]": {"test_system": "A549", "assay": "Induction of apoptosis in human A549 cells assessed as decrease in BCl-2 expression at upto 10 uM incubated for 24 hrs by Western blot analysis", "format": "functional, cell-based"}, "NCI-H1299 [2]": {"test_system": "NCI-H1299", "assay": "Induction of apoptosis in human NCI-H1299 cells assessed as viable cells at 5 uM measured after 48 hrs by Annexin V/FITC staining based flow cytometric analysis (reference value: 96.3%)", "format": "functional", "details": "read-out: Activity"}, "A549 [3]": {"test_system": "A549", "assay": "Induction of apoptosis in human A549 cells assessed as early apoptotic cells at 2.5 uM measured after 48 hrs by Annexin V/FITC staining based flow cytometric analysis (reference value: 1.31 %)", "format": "functional"}, "[4]": {"assay": "Half life in male Sprague-Dawley rat at 10 mg/kg, iv measured upto 24 hrs by LC-MS/MS analysis", "format": "ADME, organism-based", "details": "in vivo"}, "NCI-H1299 [5]": {"test_system": "NCI-H1299", "assay": "Antitumor activity against human NCI-H1299 cells xenografted in BALB/c mouse assessed as reduction in tumor volume at 5 to 10 mg/kg, po administered every 2 days for 2 weeks", "format": "functional, organism-based", "details": "dose 5-10 mg/kg"}, "NCI-H1299 [6]": {"test_system": "NCI-H1299", "assay": "Induction of apoptosis in human NCI-H1299 cells assessed as late apoptotic cells at 5 uM measured after 48 hrs by Annexin V/FITC staining based flow cytometric analysis (reference value: 1.96%)", "format": "functional"}, "NSCLC": {"test_system": "NSCLC", "assay": "Downregulation of TrxR1 expression in human NSCLC cells", "format": "functional, cell-based"}, "[7]": {"assay": "Toxicity in BALB/c mouse assessed as heart damage at 5 to 10 mg/kg, po administered every 2 days for 2 weeks by H and E staining based analysis", "format": "organism-based", "details": "in vivo, 336 h, dose 5-10 mg/kg"}, "NCI-H1299 [8]": {"test_system": "NCI-H1299", "assay": "Induction of ROS accumulation in human TrxR1 knockdown NCI-H1299 cells incubated for 24 hrs", "format": "functional, cell-based"}, "NCI-H1299 [9]": {"test_system": "NCI-H1299", "assay": "Induction of ferroptosis in human NCI-H1299 cells assessed as cell death by MTT assay", "format": "functional, cell-based"}, "[10]": {"target": "T1, Thioredoxin reductase 1, cytoplasmic (Homo sapiens) (UniProt Q16881)", "T1 sequence (whole entry)": "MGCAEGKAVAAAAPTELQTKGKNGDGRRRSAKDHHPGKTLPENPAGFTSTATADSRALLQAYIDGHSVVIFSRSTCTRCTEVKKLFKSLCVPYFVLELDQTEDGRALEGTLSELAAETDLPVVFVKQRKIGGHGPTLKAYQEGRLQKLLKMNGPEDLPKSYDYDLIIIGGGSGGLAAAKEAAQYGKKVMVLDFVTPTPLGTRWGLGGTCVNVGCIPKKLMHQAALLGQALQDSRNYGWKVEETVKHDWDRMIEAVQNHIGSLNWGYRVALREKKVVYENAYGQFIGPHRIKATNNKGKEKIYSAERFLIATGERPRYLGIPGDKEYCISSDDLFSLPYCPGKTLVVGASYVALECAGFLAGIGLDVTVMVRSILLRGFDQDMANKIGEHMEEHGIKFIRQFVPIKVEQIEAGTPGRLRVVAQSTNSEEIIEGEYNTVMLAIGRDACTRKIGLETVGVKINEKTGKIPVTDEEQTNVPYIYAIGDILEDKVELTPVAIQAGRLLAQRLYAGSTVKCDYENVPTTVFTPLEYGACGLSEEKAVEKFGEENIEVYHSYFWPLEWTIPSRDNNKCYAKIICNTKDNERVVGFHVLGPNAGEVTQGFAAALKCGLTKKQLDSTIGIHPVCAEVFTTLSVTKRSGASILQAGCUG", "assay": "Inhibition of TrxR1 in human A549 cells", "format": "cell-based", "details": "dose <= 10.0 µM"}, "[11]": {"assay": "Cmax in male Sprague-Dawley rat at 10 mg/kg, iv measured upto 24 hrs by LC-MS/MS analysis", "format": "ADME, organism-based", "details": "in vivo"}, "NCI-H1299 [12]": {"test_system": "NCI-H1299", "assay": "Antitumor activity against human NCI-H1299 cells xenografted in po dosed BALB/c mouse assessed as reduction in tumor growth administered every 2 days for 2 weeks", "format": "functional, organism-based", "details": "dose 5-10 mg/kg"}, "NCI-H1299 [13]": {"test_system": "NCI-H1299", "assay": "Induction of apoptosis in human NCI-H1299 cells assessed as early apoptotic cells at 2.5 uM measured after 48 hrs by Annexin V/FITC staining based flow cytometric analysis (reference value: 1.14 %)", "format": "functional"}, "NCI-H1299 [14]": {"test_system": "NCI-H1299", "assay": "Induction of apoptosis in human NCI-H1299 cells assessed as increase in Bax expression at upto 10 uM incubated for 24 hrs by Western blot analysis", "format": "functional, cell-based"}, "NCI-H1299 [15]": {"test_system": "NCI-H1299", "assay": "Inhibition of colony formation in human NCI-H1299 cells assessed as reduction in colony number at 4 uM incubated for 14 days by crystal violet staining based analysis", "format": "functional, cell-based", "details": "time 14.0 day"}, "A549 [16]": {"test_system": "A549", "assay": "Cytotoxicity against human A549 cells assessed as cell viability incubated for 48 hrs by MTT assay", "format": "functional, cell-based", "details": "A549, 48 h"}, "A549 [17]": {"test_system": "A549", "assay": "Induction of apoptosis in human A549 cells assessed as late apoptotic cells at 10 uM measured after 48 hrs by Annexin V/FITC staining based flow cytometric analysis (reference value: 5.37%)", "format": "functional"}, "A549 [18]": {"test_system": "A549", "assay": "Induction of apoptosis in human A549 cells assessed as viable cells at 2.5 uM measured after 48 hrs by Annexin V/FITC staining based flow cytometric analysis (reference value: 90.8 %)", "format": "functional", "details": "read-out: Activity"}, "[19]": {"assay": "AUC (0 to infinity) in male Sprague-Dawley rat at 10 mg/kg, iv measured upto 24 hrs by LC-MS/MS analysis", "format": "ADME, organism-based", "details": "in vivo"}, "NCI-H1299 [20]": {"test_system": "NCI-H1299", "assay": "Induction of apoptosis in human NCI-H1299 cells assessed as chromatin condensation upto 10 uM by Hoechst 33258 staining based fluorescence microscopic analysis", "format": "functional, cell-based"}, "A549 [21]": {"test_system": "A549", "assay": "Induction of apoptosis in human A549 cells assessed as late apoptotic cells at 2.5 uM measured after 48 hrs by Annexin V/FITC staining based flow cytometric analysis (reference value: 5.37%)", "format": "functional"}, "[22]": {"assay": "Toxicity in BALB/c mouse assessed as kidney damage at 5 to 10 mg/kg, po administered every 2 days for 2 weeks by H and E staining based analysis", "format": "organism-based", "details": "in vivo, 336 h, dose 5-10 mg/kg"}, "NCI-H1299 [23]": {"test_system": "NCI-H1299", "assay": "Induction of apoptosis in human NCI-H1299 cells assessed as decrease in BCl-2 expression at upto 10 uM incubated for 24 hrs by Western blot analysis", "format": "functional, cell-based"}, "NCI-H1299 [24]": {"test_system": "NCI-H1299", "assay": "Induction of apoptosis in human NCI-H1299 cells assessed as viable cells at 2.5 uM measured after 48 hrs by Annexin V/FITC staining based flow cytometric analysis (reference value: 96.3%)", "format": "functional", "details": "read-out: Activity"}, "NCI-H1299 [25]": {"test_system": "NCI-H1299", "assay": "Induction of ferroptosis in human NCI-H1299 cells assessed as effect on GPX4 protein expression at 10 uM incubated for 24 hrs by Western blotting analysis", "format": "functional, cell-based"}, "[26]": {"assay": "AUC (0 to t) in male Sprague-Dawley rat at 10 mg/kg, iv measured upto 24 hrs by LC-MS/MS analysis", "format": "ADME, organism-based", "details": "in vivo"}, "NCI-H1299 [27]": {"test_system": "NCI-H1299", "assay": "Induction of ferroptosis in human NCI-H1299 cells assessed as effect on SLC7A11 protein expression at 10 uM incubated for 24 hrs by Western blotting analysis", "format": "functional, cell-based"}, "A549 [28]": {"test_system": "A549", "assay": "Induction of apoptosis in human A549 cells assessed as viable cells at 5 uM measured after 48 hrs by Annexin V/FITC staining based flow cytometric analysis (reference value: 90.8 %)", "format": "functional", "details": "read-out: Activity"}, "[29]": {"assay": "Tmax in male Sprague-Dawley rat at 10 mg/kg, iv measured upto 24 hrs by LC-MS/MS analysis", "format": "ADME, organism-based", "details": "in vivo"}, "A549 [30]": {"test_system": "A549", "assay": "Induction of apoptosis in human A549 cells assessed as late apoptotic cells at 5 uM measured after 48 hrs by Annexin V/FITC staining based flow cytometric analysis (reference value: 5.37%)", "format": "functional"}},
  "note": "pIC50: −log10 of the molar value. Calls of active or inactive are those of the source. The calls are words filed in the database; no cut-off is given here.",
  "data": [
    {"smiles": "CCCNC(=O)O[C@@H]1/C=C(\\C)C[C@H]2C=C(C[C@@H]3OC(=O)[C@H](CSC(=S)N(C)C)[C@H]31)C(=O)O2", "values": [
      {"measurement": "Activity", "setting": "A549 [1]", "value": "Active"},
      {"measurement": "viability at 5 µM", "setting": "NCI-H1299 [2]", "value": 72.7, "unit": "%"},
      {"measurement": "Activity", "setting": "A549 [3]", "value": 1.56, "unit": "%"},
      {"measurement": "half-life", "setting": "[4]", "value": 231, "unit": "min"},
      {"measurement": "Activity", "setting": "NCI-H1299 [5]", "value": "Active"},
      {"measurement": "Activity", "setting": "NCI-H1299 [6]", "value": 15.6, "unit": "%"},
      {"measurement": "Activity", "setting": "NSCLC", "value": "Active"},
      {"measurement": "Activity", "setting": "[7]", "value": "Non-toxic"},
      {"measurement": "Activity", "setting": "NCI-H1299 [8]", "value": "Active"},
      {"measurement": "Activity", "setting": "NCI-H1299 [9]", "value": "Active"},
      {"measurement": "inhibition", "setting": "[10]", "value": "Dose-dependent-effect"},
      {"measurement": "Cmax", "setting": "[11]", "value": 2310, "unit": "ng/mL"},
      {"measurement": "Activity", "setting": "NCI-H1299 [12]", "value": "Dose-dependent-effect"},
      {"measurement": "Activity", "setting": "NCI-H1299 [13]", "value": 1.67, "unit": "%"},
      {"measurement": "Activity", "setting": "NCI-H1299 [14]", "value": "Active"},
      {"measurement": "inhibition", "setting": "NCI-H1299 [15]", "value": "Active"},
      {"measurement": "pIC50", "setting": "A549 [16]", "value": 5.76},
      {"measurement": "Activity", "setting": "A549 [17]", "value": 24.3, "unit": "%"},
      {"measurement": "viability at 2.5 µM", "setting": "A549 [18]", "value": 87.7, "unit": "%"},
      {"measurement": "AUC(0-inf)", "setting": "[19]", "value": 1080, "unit": "ng·h/mL"},
      {"measurement": "Activity", "setting": "NCI-H1299 [20]", "value": "Active"},
      {"measurement": "Activity", "setting": "A549 [21]", "value": 6.69, "unit": "%"},
      {"measurement": "Activity", "setting": "[22]", "value": "Non-toxic"},
      {"measurement": "Activity", "setting": "NCI-H1299 [23]", "value": "Active"},
      {"measurement": "viability at 2.5 µM", "setting": "NCI-H1299 [24]", "value": 89.7, "unit": "%"},
      {"measurement": "Activity", "setting": "NCI-H1299 [25]", "value": "Active"},
      {"measurement": "AUC(0-t) at 24 h", "setting": "[26]", "value": 997, "unit": "ng·h/mL"},
      {"measurement": "Activity", "setting": "NCI-H1299 [27]", "value": "Active"},
      {"measurement": "viability at 5 µM", "setting": "A549 [28]", "value": 77.8, "unit": "%"},
      {"measurement": "Tmax", "setting": "[29]", "value": 1.98, "unit": "min"},
      {"measurement": "Activity", "setting": "A549 [30]", "value": 16.1, "unit": "%"}
    ]}
  ]
}
